Source: patent publication US20200325127A1, “PYRIDIN-3-YL ACETIC ACID DERIVATIVES AS INHIBITORS OF HUMAN IMMUNODEFICIENCY VIRUS REPLICATION” (priority 2016, published 2020)

What follows are compounds tested on NL-RLuc virus (assay: Inhibition of HIV replication (NL-RLuc luciferase reporter virus in MT-2 cells)). Details: Human immunodeficiency virus 1, MT2, 120 h, read-out: Activity.
Type: cell-based
Source text: Inhibition of HIV replication: A recombinant NL-RLuc proviral clone was constructed in which a section of the nef gene from NL4-3 was replaced with the Renilla Luciferase gene. This virus is fully infectious and can undergo multiple cycles of replication in cell culture. In addition, the luciferous reporter provides a simple and easy method for quantitating the extent of virus growth and consequently, the antiviral activity of test compounds. The plasmid pNLRLuc contains the proviral NL-Rluc DNA cloned into pUC18 at the PvuII site. The NL-RLuc virus was prepared by transfection of 293T cells with the plasmid pNLRLuc. Transfections were performed using the LipofectAMINE PLUS kit from Invitrogen (Carlsbad, Calif.) according to the manufacturer and the virus generated was titered in MT-2 cells. For susceptibility analyses, the titrated virus was used to infect MT-2 cells in the presence of compound, and after 5 days of incubation, cells were processed and quantitated for virus growth by the amount of expressed luciferase. Assay media was RPMI 1640 supplemented with 10% heat inactivated fetal bovine serum (FBS), 100 units/ml penicillin G/100 units/ml streptomycin, 10 mM HEPES buffer pH 7.55 and 2 mM L-glutamine. The results from at least 2 experiments were used to calculate the EC50 values. Luciferase was quantitated using the Dual Luciferase kit from Promega (Madison, Wis.). Susceptibility of viruses to compounds was determined by incubation in the presence of serial dilutions of the compound. The 50% effective concentration (EC50) was calculated by using the exponential form of the median effect equation where (Fa)=1/[1+(ED50/drug conc.)^m](Johnson V A, Byington R T. Infectivity Assay. In Techniques in HIV Research. ed. Aldovini A, Walker B D. 71-76. New York: Stockton Press. 1990). Activity equal to A refers to a compound having an EC50≤100 nM, while B and C denote compounds having an EC50 between 100 nM and 1 uM (B) or >1 uM (C).

Question: With `COc1cc(N2CCc3cc(-c4c(C)nc(C)c([C@H](OC(C)(C)C)C(=O)O)c4N4CCC(C)(C)CC4)ccc3C2)nc(SC)n1` [Compound 62] as the compound, how does the EC50 read?
Answer: < 0.1 µM

Question: With `Cc1nc(C)c([C@H](OC(C)(C)C)C(=O)O)c(N2CCC(C)(C)CC2)c1-c1ccc2c(c1)CCN(c1nc(N3CCOCC3)nc(N3CCOCC3)n1)C2` [Compound 37] as the compound, how does the EC50 read?
Answer: < 0.1 µM

Question: With `Cc1nc(C)c([C@H](OC(C)(C)C)C(=O)O)c(N2CCC(C)(C)CC2)c1-c1ccc2c(c1)CCN(c1nccc(-c3ccccc3)n1)C2` [Compound 8] as the compound, how does the EC50 read?
Answer: < 0.1 µM

Question: How did the EC50 turn out when `Cc1nc(C)c([C@H](OC(C)(C)C)C(=O)O)c(N2CCC(C)(C)CC2)c1-c1ccc2c(c1)CCN(c1nccs1)C2` [Compound 6] was run?
Answer: < 0.1 µM

Question: How did the EC50 turn out when `COc1ccnc(N2CCc3cc(-c4c(C)nc(C)c([C@H](OC(C)(C)C)C(=O)O)c4N4CCC(C)(C)CC4)ccc3C2)n1` [Compound 12] was run?
Answer: < 0.1 µM

Question: With `Cc1nc(C)c([C@H](OC(C)(C)C)C(=O)O)c(N2CCC(C)(C)CC2)c1-c1ccc2c(c1)CCN(c1ncccc1C(=O)O)C2` [Compound 16] as the compound, how does the EC50 read?
Answer: 0.1 to 1 µM

Question: Which EC50 does the source give for `COc1nccc(N2CCc3cc(-c4c(C)nc(C)c([C@H](OC(C)(C)C)C(=O)O)c4N4CCC(C)(C)CC4)ccc3C2)n1` [Compound 40] here?
Answer: < 0.1 µM

Question: `COc1cc(N2CCc3cc(-c4c(C)nc(C)c([C@H](OC(C)(C)C)C(=O)O)c4N4CCC(C)(C)CC4)ccc3C2)nc(N)n1` [Compound 56] was tested. Which EC50 did it give?
Answer: < 0.1 µM

Question: Which EC50 does the source give for `Cc1nc(C)c([C@H](OC(C)(C)C)C(=O)O)c(N2CCC(C)(C)CC2)c1-c1ccc2c(c1)CCN(c1ncnc3c1CCCC3)C2` [Compound 15] here?
Answer: < 0.1 µM

Question: For `Cc1cc(N2CCc3cc(-c4c(C)nc(C)c([C@H](OC(C)(C)C)C(=O)O)c4N4CCC(C)(C)CC4)ccc3C2)nc(N)n1` [Compound 61], which EC50 is on record?
Answer: < 0.1 µM

Question: Which EC50 does the source give for `Cc1nc(NC(C)(C)C)cc(N2CCc3cc(-c4c(C)nc(C)c([C@H](OC(C)(C)C)C(=O)O)c4N4CCC(C)(C)CC4)ccc3C2)n1` [Compound 64] here?
Answer: < 0.1 µM

Question: How did the EC50 turn out when `Cc1cnc(N2CCc3cc(-c4c(C)nc(C)c([C@H](OC(C)(C)C)C(=O)O)c4N4CCC(C)(C)CC4)ccc3C2)nc1` [Compound 17] was run?
Answer: < 0.1 µM

Question: How did the EC50 turn out when `CCc1ccnc(N2CCc3cc(-c4c(C)nc(C)c([C@H](OC(C)(C)C)C(=O)O)c4N4CCC(C)(C)CC4)ccc3C2)n1` [Compound 32] was run?
Answer: < 0.1 µM

Question: Which EC50 does the source give for `CNc1nccc(N2CCc3cc(-c4c(C)nc(C)c([C@H](OC(C)(C)C)C(=O)O)c4N4CCC(C)(C)CC4)ccc3C2)n1` [Compound 36] here?
Answer: < 0.1 µM

Question: For `CSc1nc(N2CCc3cc(-c4c(C)nc(C)c([C@H](OC(C)(C)C)C(=O)O)c4N4CCC(C)(C)CC4)ccc3C2)cc(C(F)(F)F)n1` [Compound 63], which EC50 is on record?
Answer: < 0.1 µM

Question: `Cc1nc(C)c([C@H](OC(C)(C)C)C(=O)O)c(N2CCC(C)(C)CC2)c1-c1ccc2c(c1)CCN(c1ncc(Cl)cn1)C2` [Compound 23] was tested. Which EC50 did it give?
Answer: < 0.1 µM

Question: How did the EC50 turn out when `Cc1nc(C)c([C@H](OC(C)(C)C)C(=O)O)c(N2CCC(C)(C)CC2)c1-c1ccc2c(c1)CCN(c1cc(Cl)cnn1)C2` [Compound 28] was run?
Answer: < 0.1 µM

Question: Which EC50 does the source give for `Cc1nc(C)c([C@H](OC(C)(C)C)C(=O)O)c(N2CCC(C)(C)CC2)c1-c1ccc2c(c1)CCN(c1ncnc3c1CCC3)C2` [Compound 52] here?
Answer: < 0.1 µM

Question: `Cc1nc(C)c([C@H](OC(C)(C)C)C(=O)O)c(N2CCC(C)(C)CC2)c1-c1ccc2c(c1)CCN(c1nnc(-c3ccccc3)cc1C(N)=O)C2` [Compound 9] was tested. Which EC50 did it give?
Answer: < 0.1 µM

Question: Which EC50 does the source give for `Cc1cc(N2CCc3cc(-c4c(C)nc(C)c([C@H](OC(C)(C)C)C(=O)O)c4N4CCC(C)(C)CC4)ccc3C2)nc(C(C)C)n1` [Compound 44] here?
Answer: < 0.1 µM

Question: With `Cc1cn(-c2ccc(N3CCc4cc(-c5c(C)nc(C)c([C@H](OC(C)(C)C)C(=O)O)c5N5CCC(C)(C)CC5)ccc4C3)nn2)cn1` [Compound 69] as the compound, how does the EC50 read?
Answer: < 0.1 µM

Question: With `Cc1cc(N2CCc3cc(-c4c(C)nc(C)c([C@H](OC(C)(C)C)C(=O)O)c4N4CCC(C)(C)CC4)ccc3C2)nc(C)n1` [Compound 29] as the compound, how does the EC50 read?
Answer: < 0.1 µM

Question: Which EC50 does the source give for `Cc1nc(C)c([C@H](OC(C)(C)C)C(=O)O)c(N2CCC(C)(C)CC2)c1-c1ccc2c(c1)CCN(c1ccnc(C(F)(F)F)n1)C2` [Compound 60] here?
Answer: < 0.1 µM

Same assay, conditions: Human immunodeficiency virus 1, MT2, 120 h, read-out: EC50 μM

Question: `COc1ccc2ncnc(N3CCc4cc(-c5c(C)nc(C)c([C@H](OC(C)(C)C)C(=O)O)c5N5CCC(C)(C)CC5)ccc4C3)c2c1` [Compound 81] was tested. Which EC50 did it give?
Answer: 0.002 µM

Question: How did the EC50 turn out when `Cc1nc(C)c([C@H](OC(C)(C)C)C(=O)O)c(N2CCC(C)(C)CC2)c1-c1ccc2c(c1)CCN(c1nccc3cccnc13)C2` [Compound 77] was run?
Answer: 0.002 µM

Question: Which EC50 does the source give for `COc1cc(N2CCc3cc(-c4c(C)nc(C)c([C@H](OC(C)(C)C)C(=O)O)c4N4CCC(C)(C)CC4)ccc3C2)nc(SC)n1` [Compound 62] here?
Answer: 0.004 µM

Question: Which EC50 does the source give for `Cc1nc(C)c([C@H](OC(C)(C)C)C(=O)O)c(N2CCC(C)(C)CC2)c1-c1ccc2c(c1)CCN(c1nccs1)C2` [Compound 6] here?
Answer: 0.007 µM

Question: For `Cc1nc(C)c([C@H](OC(C)(C)C)C(=O)O)c(N2CCC(C)(C)CC2)c1-c1ccc2c(c1)CCN(c1cnc3ccccc3n1)C2` [Compound 71], which EC50 is on record?
Answer: 0.01 µM

Question: `COc1nccc(N2CCc3cc(-c4c(C)nc(C)c([C@H](OC(C)(C)C)C(=O)O)c4N4CCC(C)(C)CC4)ccc3C2)n1` [Compound 40] was tested. Which EC50 did it give?
Answer: 0.002 µM

Question: Which EC50 does the source give for `Cc1nc(C)c([C@H](OC(C)(C)C)C(=O)O)c(N2CCC(C)(C)CC2)c1-c1ccc2c(c1)CCN(c1ncnc3cc(Cl)ccc13)C2` [Compound 89] here?
Answer: 0.004 µM

Question: How did the EC50 turn out when `Cc1nc2ccccc2nc1N1CCc2cc(-c3c(C)nc(C)c([C@H](OC(C)(C)C)C(=O)O)c3N3CCC(C)(C)CC3)ccc2C1` [Compound 87] was run?
Answer: 0.01 µM

Question: For `Cc1nc(C)c([C@H](OC(C)(C)C)C(=O)O)c(N2CCC(C)(C)CC2)c1-c1ccc2c(c1)CCN(c1ncnc3ccccc13)C2` [Compound 76], which EC50 is on record?
Answer: 0.002 µM

Question: For `COc1ccc2cnc(N3CCc4cc(-c5c(C)nc(C)c([C@H](OC(C)(C)C)C(=O)O)c5N5CCC(C)(C)CC5)ccc4C3)nc2c1` [Compound 74], which EC50 is on record?
Answer: 0.006 µM

Question: For `Cc1nc(C)c([C@H](OC(C)(C)C)C(=O)O)c(N2CCC(C)(C)CC2)c1-c1ccc2c(c1)CCN(c1ncnc3ccc(F)cc13)C2` [Compound 85], which EC50 is on record?
Answer: 0.002 µM

Question: `COc1ccc2c(N3CCc4cc(-c5c(C)nc(C)c([C@H](OC(C)(C)C)C(=O)O)c5N5CCC(C)(C)CC5)ccc4C3)ncnc2c1` [Compound 80] was tested. Which EC50 did it give?
Answer: 0.001 µM

Question: Which EC50 does the source give for `Cc1nc(C)c([C@H](OC(C)(C)C)C(=O)O)c(N2CCC(C)(C)CC2)c1-c1ccc2c(c1)CCN(c1nc(N(C)C)c3ccccc3n1)C2` [Compound 82] here?
Answer: 0.001 µM

Question: Which EC50 does the source give for `Cc1cc(N2CCc3cc(-c4c(C)nc(C)c([C@H](OC(C)(C)C)C(=O)O)c4N4CCC(C)(C)CC4)ccc3C2)nc(C)n1` [Compound 29] here?
Answer: 0.004 µM

Question: How did the EC50 turn out when `Cc1nc(C)c([C@H](OC(C)(C)C)C(=O)O)c(N2CCC(C)(C)CC2)c1-c1ccc2c(c1)CCN(c1nc(C(F)(F)F)cc3ccccc13)C2` [Compound 79] was run?
Answer: 0.007 µM
